Literature values, collected in patent publication US20030100464A1, “Dishwashing compositions containing alkylbenzenesulfonate surfactants” (priority 2001, published 2003).

B1: D96L: D96L lipolytic enzyme variant of the native lipase derived from Humicola lanuginosa (protein, UniProt O59952 23-291, looked up, variant D96L)
Lipase: EVSQDLFNQFNLFAQYSAAAYCGKNNDAPAGTNITCTGNACPEVEKADATFLYSFEDSGVGDVTGFLALDNTNKLIVLSFRGSRSIENWIGNLNFLLKEINDICSGCRGHDGFTSSWRSVADTLRQKVEDAVREHPDYRVVFTGHSLGGALATVAGADLRGNGYDIDVFSYGAPRVGNRAFAEFLTVQTGGTLYRITHTNDIVPRLPPREFGYSHSSPEYWIKSGTLVPVTRNDIVKIEGIDATGGNNQPNIPDIPAHLWYFGLIGTCL

Conditions: enzymes compared at 0.075 to 2.5 mg protein per liter

improvement of lard stain removal efficiency, factor over the wild-type lipase	Molecule
4.4	B1

Conditions: all-aqueous solution at 25° C., ionic strength 0.1 to 0.5 M

Molecule	pK1	pK2
CCC(N)CCN (stereo not drawn) [1,3 pentane diamine]	10.5	8.9
NCCCCCCN [1,6 hexane diamine]	11	10
NCCCN [1,3 propane diamine]	10.5	8.8
CC(CN)CCCN (stereo not drawn) [2-methyl 1,5 pentane diamine]	11.2	10.0
